The test system of assay [1] is Plasmodium falciparum. Put plainly: ST_JUDE: Plasmodium falciparum K1 EC50 (uM) as measured by SYBR green dye. The class given is functional, organism-based.
The subject of assay [2] is Plasmodium falciparum. Put plainly: ST_JUDE: Plasmodium falciparum 3D7 EC50 (uM) as measured by SYBR green dye. Format: functional, organism-based.

The record followed here is ChEMBL document CHEMBL1154198, “Chemical genetics of Plasmodium falciparum” (Nature, 2010).

For the compound `CCCCc1ccc(OCC(=O)N/N=C/c2cccc(OC)c2)cc1`, the EC50 in assay [1] and in assay [2] was more than 15 µM throughout.

In the case of `O=C(Nc1ccc2oc(-c3ccccc3)nc2c1)C(Cl)(Cl)Cl`, the EC50 in assay [1] is 4.52 µM; in assay [2], more than 15 µM.

Take `COc1ccc(OCC(O)Cn2c(C)[n+](C)c3ccccc32)cc1` (configuration not stated): the EC50 in assay [1] and in assay [2] was more than 15 µM in each case.

As to `COc1ccc(CCNC(=S)Nc2ccccc2Cl)cc1Br`, the EC50 in assay [1] worked out at 1.6 µM; in assay [2], 0.96 µM.

In the case of `CCOc1ccc(Nc2c3ccccc3nc3ccccc23)cc1`, the EC50 in assay [1] turned out to be 1.91 µM; in assay [2] it was 5.72 µM.

With `Cc1cccc(NC(=O)Nc2ccc(S(=O)(=O)C(F)(F)F)cc2)c1C`, the EC50 was found to be 1.22 µM in assay [1] and 1.32 µM in assay [2].

Regarding `CSCCCN1C(=O)CSC1c1cnccc1-c1ccc(Br)cc1` (configuration not stated), the results for the EC50 in assay [1] and in assay [2] were 1.17 µM and 1.21 µM, respectively.

As for `O=C(Nc1nc(-c2ccccn2)cs1)c1ccccc1[N+](=O)[O-]`, the EC50 in assay [1] came to 6.94 µM; in assay [2], 4.99 µM.

With `COC(=O)C1C(O)=C2C(=Nc3ccccc3NC2c2ccccc2OC(C)C)CC1C` (configuration not stated), the EC50 in assay [1] and in assay [2] was more than 15 µM throughout.

For the compound `CN1CCN(c2ccc(Nc3ccnc4cc(Cl)ccc34)cc2Cl)CC1`, the EC50 in assay [1] came out at 0.0571 µM; in assay [2], 0.0625 µM.

Turning to `Cc1cccc(-n2c(N)c(C#N)c3nc4ccccc4nc32)c1`, the EC50 in assay [1] is more than 15 µM; in assay [2] it was 4.2 µM.

For the compound `COC(=O)C1=CNC=C(C(=O)OC)C1c1ccc(Cl)c([N+](=O)[O-])c1`, the EC50 in assay [1] was determined as 0.744 µM; in assay [2], 0.62 µM.

For the compound `CCOc1ccc(Nc2cc(C)nc3ccc(OCC)cc23)cc1`, the EC50 in assay [1] was 3.48 µM; in assay [2] it was 1.1 µM.

For `Cc1ccc(NC(=O)Nc2cccc(Cl)c2)cc1F`, the EC50 in assay [1] and in assay [2] was more than 15 µM each time.

Regarding `CN1CCN(c2cc(N3CCN(C)CC3)c([N+](=O)[O-])cc2C2Nc3ccc4ccccc4c3C3=C2C(=O)CC(C)(C)C3)CC1` (configuration not stated), the EC50 in assay [1] was more than 15 µM; in assay [2], 3.44 µM.

As for `CCc1cc(-c2[nH]nc(C)c2Oc2ccccc2)c(O)cc1OC(C)C`, the EC50 was determined as 1.46 µM in assay [1] and 3.66 µM in assay [2].

For the compound `CCCCN(CC)CCNC(=O)c1cc2c(-c3ccccc3F)nn(C)c2s1`, the values for the concentration giving a half-maximal response (EC50) in assay [1] and in assay [2] were more than 15 µM and 2.07 µM, respectively.

Regarding `CCN1C(=O)c2ccccc2Sc2ccc(NC(=O)NCc3ccccc3Cl)cc21`, the EC50 in assay [1] and in assay [2] was more than 15 µM each time.

Take `CCOc1ccc(CCNC(=O)Nc2cc(C(F)(F)F)cc(C(F)(F)F)c2)cc1OC`: the EC50 is 5.6 µM in assay [1] and 2.83 µM in assay [2].

As to `Cc1cc(N2CCCC2)nc(Nc2ccc(NS(=O)(=O)c3ccc(Cl)cc3)cc2)n1`, the EC50 in assay [1] was more than 15 µM; in assay [2] it was 2.12 µM.

Consider `COC(=O)c1sc2ccccc2c1NC(=O)c1cccc(Br)c1`, for which the EC50 in assay [1] and in assay [2] was more than 15 µM in each case.

With `CCS(=O)(=O)c1ccc(OC)c(/N=N/c2ccc(O)c3ncccc23)c1`, the EC50 was more than 15 µM in assay [1] and 4.96 µM in assay [2].

For the compound `CCCc1cc(O)nc(-n2nc(C)cc2NC(=O)c2ccccc2F)n1`, the EC50 in assay [1] and in assay [2] was more than 15 µM in each case.

In the case of `CCc1ccc(OC(C)C(=O)Nc2nccs2)cc1` (configuration not stated), the EC50 in assay [1] and in assay [2] was more than 15 µM in each case.

For `Clc1cccc(/C=N/Nc2[nH]cnc3ncnc2-3)c1`, the figures for the EC50 in assay [1] and in assay [2] were 3.65 µM and 2.31 µM, respectively.

In the case of `COc1ccccc1OCCCCN1CCCC1`, the EC50 in assay [1] and in assay [2] was more than 15 µM in each case.

As for `Cc1ccc2nc(C)cc(Nc3cccc(C(F)(F)F)c3)c2c1`, the EC50 in assay [1] amounted to 6.01 µM; in assay [2] it was 0.879 µM.

In the case of `COc1ccc(Cl)cc1NC(=S)N1CCN(c2ccc(C#N)cc2)CC1`, the EC50 in assay [1] is 1.29 µM; in assay [2], 0.857 µM.

Regarding `COC(=O)C1=C(C)N=c2s/c(=C\c3ccccc3OC(C)=O)c(=O)n2C1c1ccccc1Cl` (configuration not stated), the EC50 in assay [1] and in assay [2] was more than 15 µM in each case.

Regarding `CC1CCN(C(=O)c2cc(COc3ccc(F)cc3F)on2)CC1`, the EC50 in assay [1] and in assay [2] was more than 15 µM in each case.

For the compound `CCOC(=O)N1CCC(NC(=S)Nc2ccc(C(C)(C)C)cc2)CC1`, the EC50 in assay [1] is 2.64 µM; in assay [2] it was 9.44 µM.

`CSc1cccc(NC(=O)Cn2c(=O)sc3ccccc32)c1`: the EC50 in assay [1] and in assay [2] was more than 15 µM in each case.

As for `CCCN(CCC)Cc1c(O)ccc2c(=O)c(Oc3ccc(OC)cc3)c(C(F)(F)F)oc12`, the EC50 in assay [1] was 2.95 µM; in assay [2], more than 15 µM.

With `CCc1ccc(NC(=O)CN2N=NC3C(=O)N(c4ccc(Br)cc4)C(=O)C32)cc1` (configuration not stated), the EC50 in assay [1] and in assay [2] was more than 15 µM in each case.

Consider `CCCc1cc(O)nc(-n2nc(C)cc2NC(=O)c2cc(C(F)(F)F)cc(C(F)(F)F)c2)n1`, for which the EC50 in assay [1] and in assay [2] was more than 15 µM in each case.

For `CCOC(=O)C1=C(Nc2ccc(Cl)cc2)S/C(=C\c2cccc(OC)c2O)C1=O`, the EC50 was 4 µM in assay [1] and more than 15 µM in assay [2].

Take `CC(=O)Oc1ccc2ccccc2c1C(NC(=O)C(C)C)c1ccc(Cl)cc1` (configuration not stated): the EC50 in assay [1] was 4.46 µM; in assay [2], 4.03 µM.

Consider `Cc1ccc(O)c(-n2cc3c(c2-c2ccc(C(C)(C)C)cc2)c(=O)n(C)c(=O)n3C)c1`, for which the EC50 in assay [1] came to 2.41 µM; in assay [2], 3.57 µM.

Turning to `O=C1CC(O)(C(F)(F)C(F)(F)OC(F)(F)F)Oc2ccc(Cl)cc21` (configuration not stated), the EC50 in assay [1] and in assay [2] was more than 15 µM throughout.

For `CCOC(=O)c1nnn(-c2nonc2N)c1-c1ccc(Cl)cc1`, the EC50 in assay [1] is 3.47 µM; in assay [2], more than 15 µM.

With `C=C(C)CCC(C)N1CCC(N2CCC(C(=O)NCCc3ccccc3)CC2)CC1` (configuration not stated), the EC50 is more than 15 µM in assay [1] and 4.26 µM in assay [2].

For `Cc1n[nH]c(-c2ccc(OC(C)C)cc2O)c1Oc1ccccc1`, the EC50 in assay [1] amounted to 2.91 µM; in assay [2], 5.66 µM.

On to `C=CCN1C(=O)c2[nH]nc(-c3c(C)cc(C)cc3O)c2C1c1ccc(OC)cc1` (configuration not stated), for which the EC50 in assay [1] was found to be 1.45 µM; in assay [2], 2.07 µM.

As to `CN1c2ccccc2N(C)C1c1ccc(Sc2ccc(C3N(C)c4ccccc4N3C)o2)o1`, the values for the EC50 in assay [1] and in assay [2] were 1.65 µM and more than 15 µM, respectively.

Turning to `CCN(CC)c1ccc(C2NC(=O)NC(O)(C(F)(F)F)C2C(=O)c2cccnc2)cc1` (configuration not stated), the EC50 was 8.42 µM in assay [1] and 9.06 µM in assay [2].

As for `CCCCc1ccc(Nc2cc(C)nc(-n3nc(C)cc3C)n2)cc1`, the EC50 in assay [1] is 4.64 µM; in assay [2], more than 15 µM.

Consider `CCCCn1c(=O)c2c(nc3n(-c4ccc(C)c(Cl)c4)c(C)cn23)n(C)c1=O`, for which the EC50 in assay [1] and in assay [2] was more than 15 µM each time.

On to `Cc1cc(O)nc(-n2nc(C)cc2NC(=O)c2cc(C(F)(F)F)cc(C(F)(F)F)c2)n1`, for which the EC50 in assay [1] and in assay [2] was more than 15 µM each time.

With `CN(C)CCCNc1c2ccccc2nc2ccccc12`, the EC50 in assay [1] came to 3.71 µM; in assay [2], 0.531 µM.

On to `CCCO/C(O)=C1\C(C)=NC2=C(C(=O)CC(c3ccc(Cl)cc3)C2)C1c1cccc(O)c1` (configuration not stated), for which the EC50 in assay [1] turned out to be 4.47 µM; in assay [2], 4.83 µM.

In the case of `CC(C)c1ccc(Nc2c(-c3ccccn3)nc3ccccn23)cc1`, the EC50 in assay [1] and in assay [2] was more than 15 µM throughout.

Consider `CCOc1ccc(NC(=O)c2sc3nc4n(c(=O)c3c2C)CCC4)cc1`, for which the EC50 in assay [1] and in assay [2] was more than 15 µM each time.

Regarding `CCOc1ccc(C(=O)Nc2cc(C)nn2-c2nc(C)c(CC)c(O)n2)cc1OCC`, the EC50 in assay [1] and in assay [2] was more than 15 µM throughout.

For `CC(C)c1ccccc1Oc1c(C(F)(F)F)oc2c(CN3CCCC3)c(O)ccc2c1=O`, the EC50 turned out to be 1 µM in assay [1] and 1.58 µM in assay [2].

`Cc1ccc2nc(-c3ccc(C)c(NC(=O)C(Cl)(Cl)Cl)c3)oc2c1`: the values for the EC50 in assay [1] and in assay [2] were 4.17 µM and more than 15 µM, respectively.

On to `CC(C)(C)c1ccc(-c2nc(-c3ccncc3)no2)cc1`, for which the EC50 in assay [1] and in assay [2] was more than 15 µM each time.

As for `CC(C)(C)c1ccc(O)c(CN2CCN(c3ccccc3)CC2)c1`, the EC50 turned out to be 0.51 µM in assay [1] and 1.1 µM in assay [2].

Turning to `CCOC(=O)c1c(N)n[nH]c1O`, the EC50 in assay [1] and in assay [2] was more than 15 µM each time.

Consider `CCc1ccc(C2C(C(=O)OC)=C(N)OC3=C2C(=O)CC(C)(C)C3)cc1` (configuration not stated), for which the EC50 in assay [1] and in assay [2] was more than 15 µM throughout.

Turning to `COc1cc(/C=C(\C#N)c2nc(-c3ccc(Cl)cc3)cs2)cc([N+](=O)[O-])c1O`, the EC50 in assay [1] and in assay [2] was more than 15 µM each time.

On to `O=C(N1CCCC1)C12CC3CC(CC(C3)C1)C2`, for which the EC50 worked out at 7.65 µM in assay [1] and 8.15 µM in assay [2].

Take `COc1[nH]cnc2c3cc(C)ccc3nc1-2`: the EC50 in assay [1] and in assay [2] was more than 15 µM throughout.

As to `CCCSc1nnc(Cn2c(=O)sc3ccccc32)n1C`, the EC50 in assay [1] and in assay [2] was more than 15 µM in each case.

`Cc1ccc(Nc2c(-c3ccccn3)nc3ccc(C)cn23)cc1`: the EC50 in assay [1] was more than 15 µM; in assay [2], 3.93 µM.

As for `COc1ccc(OC)c2sc(N(Cc3cccnc3)C(=O)c3cccc(Cl)c3)nc12`, the EC50 in assay [1] was 1.65 µM; in assay [2], more than 15 µM.

Regarding `COc1ccc(S(=O)(=O)Nc2cc3sc(=O)oc3c3ccccc23)cc1`, the EC50 in assay [1] and in assay [2] was more than 15 µM each time.

On to `CCCCN(CC)CCNC(=O)c1cc2cc3ccc(C)cc3nc2o1`, for which the EC50 in assay [1] was 4.09 µM; in assay [2], more than 15 µM.

For `CCCC(=O)NC(c1ccc(Cl)cc1)c1ccc2cccnc2c1O` (configuration not stated), the results for the EC50 in assay [1] and in assay [2] were 2.3 µM and 1.88 µM, respectively.

Take `COc1ccc(-c2nnc3c4ccccc4c(C)nn23)cc1S(=O)(=O)N1CCCCC1`: the EC50 in assay [1] and in assay [2] was more than 15 µM each time.

For `CC(/C=N/NC(=O)c1cc(-c2ccc(OC(C)C)cc2)n[nH]1)=C\c1ccccc1`, the EC50 in assay [1] and in assay [2] was more than 15 µM each time.

For the compound `CCCCC(O)(c1ccc(CC)cc1)C(CN1CCOCC1)c1ccccc1` (configuration not stated), the EC50 in assay [1] came to 3.44 µM; in assay [2], 3.9 µM.
